From ChEMBL document CHEMBL3808317, “Straightforward conversion of decoquinate into inexpensive tractable new derivatives with significant antimalarial activities” (Bioorg Med Chem Lett, 2016) come the findings set out here.

Values after ≈ are worked out from the molar mass of the structure shown. Active and inactive are the calls of the source. The calls are words filed in the database; no cut-off is given here. A value given as a limit tells only on which side of the number the result lay.

Data set [1] concerns Plasmodium falciparum. The data set can be described thus: Antimalarial activity against multidrug resistant Plasmodium falciparum W2 infected in human erythrocytes assessed as inhibition of parasite proliferation after 96 hrs by SYBR Green I fluorescence based assay. The class given is functional, organism-based. The following applies: W2, 96 h.
The subject of data set [2] is Plasmodium falciparum. As to the kind of experiment: Antimalarial activity against chloroquine-sensitive asexual Plasmodium falciparum NF54 infected in human erythrocytes assessed as inhibition of parasite proliferation at 1 uM after 96 hrs by SYBR Green I fluorescence based assay relative to control. In kind it is functional. The following applies: NF54, 96 h.
Data set [3] is described as follows: Cytotoxicity against human WI38 cells assessed as growth inhibition after 48 hrs by sulforhodamine B assay. The class given is cell-based. The note with it: WI-38, 48 h.
Data set [4] is described as follows: Resistance index, ratio of IC50 for multi-drug-resistant Plasmodium falciparum K1 infected in human erythrocytes to IC50 for chloroquine-sensitive asexual Plasmodium falciparum NF54 infected in human erythrocytes. The class given is functional.
A short description of data set [5]: Resistance index, ratio of IC50 for multi-drug-resistant Plasmodium falciparum W2 infected in human erythrocytes to IC50 for chloroquine-sensitive asexual Plasmodium falciparum NF54 infected in human erythrocytes. The class given is functional.
The test system of data set [6] is Plasmodium falciparum. The data set can be described thus: Antimalarial activity against chloroquine-sensitive asexual Plasmodium falciparum NF54 infected in human erythrocytes assessed as inhibition of parasite proliferation at 5 uM after 96 hrs by SYBR Green I fluorescence based assay relative to control. The following applies: NF54, 96 h. The class given is functional.

In data set [7] the test system is Plasmodium falciparum. As to the kind of experiment: Antimalarial activity against multidrug resistant Plasmodium falciparum K1 infected in human erythrocytes assessed as inhibition of parasite proliferation after 96 hrs by SYBR Green I fluorescence based assay. In kind it is functional, organism-based. The note with it: K1, 96 h.
Data set [8] is described as follows: Selectivity index, ratio of IC50 for human WI38 cells to IC50 chloroquine-sensitive asexual Plasmodium falciparum NF54 infected in human erythrocytes. The class given is toxicity, cell-based, WI-38. The note with it: read-out: Ratio IC50.
Data set [9] deals with Plasmodium falciparum. The data set can be described thus: Antimalarial activity against chloroquine-sensitive asexual Plasmodium falciparum NF54 infected in human erythrocytes assessed as inhibition of parasite proliferation at 100 to 500 nM after 96 hrs by SYBR Green I fluorescence based assay. The class given is functional, organism-based.
Data set [10] relates to Plasmodium falciparum. The data set can be described thus: Antimalarial activity against chloroquine-sensitive asexual Plasmodium falciparum NF54 infected in human erythrocytes assessed as inhibition of parasite proliferation after 96 hrs by SYBR Green I fluorescence based assay. The note with it: NF54, 96 h. In kind it is functional, organism-based.
The nature of data set [11]: Solubility of compound in water. In kind it is physicochemical.
Data set [12] can be described thus: Acidic dissociation constant, pKa of compound. The class given is physicochemical.
Data set [13] in a line: Lipophilicity, log P of compound. In kind it is physicochemical. The note with it: octanol/water.

On to `CCCCCCCCCCOc1cc2c(=O)c(C(=O)OCC)cn(C(=O)CC)c2cc1OCC`, for which the IC50 is 11.5 nM in data set [1], more than 100000 nM in data set [3], 48.9 nM in [7] and 15.4 nM in data set [10]. Moreover, the inhibition at 1 µM in data set [2] is more than 70%. Moreover, the figures for the “Ratio IC50” value in data set [4] and in [5] were 3.2 and 0.8, respectively. Besides, the inhibition at 5 µM in data set [6] was more than 50%. Moreover, the selectivity ratio in data set [8] is more than 6490. Further, in data set [9], the inhibition entry was “Active”.

Regarding `CO[C@H]1O[C@@H]2O[C@@]3(C)CC[C@H]4[C@H](C)CC[C@@H]([C@H]1C)[C@@]24OO3` [ARTEMETHER], the figures for the IC50 in data set [1], in data set [7] and in [10] were 4.5 nM, 7.26 nM and 5.77 nM, respectively. Further, the results for the “Ratio IC50” value in data set [4] and in [5] were 1.3 and 0.8, respectively.

For `CCCCCCCCCCOc1cc2c(=O)c(C(=O)N3CCOCC3)cn(S(=O)(=O)C3CC3)c2cc1OCC`, in data set [2], the inhibition at 1 µM is more than 70%. Further, the inhibition at 5 µM in data set [6] was more than 50%.

With `CCCCCCCCCCOc1cc2c(=O)c(C(=O)N3CCOCC3)cn(C(C)=O)c2cc1OCC`, in [2], the inhibition at 1 µM is more than 70%. Moreover, the inhibition at 5 µM in [6] was more than 50%.

`CCCCCCCCCCOc1cc2c(=O)c(C(=O)OCC)cn(C(=O)N(C)C)c2cc1OCC`: the inhibition at 1 µM in data set [2] was more than 70%. The inhibition at 5 µM in data set [6] is more than 50%.

Consider `CCCCCCCCCCOc1cc2c(=O)c(C(=O)NCc3ccc(F)cc3)c[nH]c2cc1OCC`, for which the IC50 was 8.6 nM in data set [1], more than 100000 nM in data set [3], 63.1 nM in [7] and 33.1 nM in [10]. Moreover, the inhibition at 1 µM in data set [2] is more than 70%. For the same compound, the “Ratio IC50” value in data set [4] is listed as 1.9; in data set [5] it was 0.2. Besides, in data set [6], the inhibition at 5 µM is more than 50%. Also, the selectivity ratio in data set [8] is more than 3020. Moreover, in data set [9], the inhibition entry is “Active”.

`CCCCCCCCCCOc1cc2c(O)c(C(=O)OCC)cnc2cc1OCC` [DECOQUINATE] yielded a solubility in data set [11] of 0.06 µg/mL (≈ 0.144 µM). Further, in data set [12], the pKa amounted to 9.81. The compound further returned a lipophilicity (logP) in [13] of 8.19. Besides, the IC50 was 15.4 nM in [1], more than 100000 nM in data set [3], 64.9 nM in data set [7] and 26.6 nM in data set [10]. The inhibition at 1 µM in data set [2] is more than 70%. The “Ratio IC50” value in data set [4] was found to be 2.4; in [5], 0.6. Moreover, in [6], the inhibition at 5 µM was more than 50%. In addition, the selectivity ratio in data set [8] is more than 3760. Further, the inhibition entry in data set [9] is “Active”.

As to `CCCCCCCCCCOc1cc2c(=O)c(C(=O)OCC)cn(C(C)=O)c2cc1OCC`, the IC50 in [1] was 8.5 nM; in data set [3] it was more than 100000 nM; in data set [7], 12 nM; in [10], 4.9 nM. Also, the inhibition at 1 µM in [2] is more than 70%. The results for the “Ratio IC50” value in [4] and in [5] were 2.5 and 1.7, respectively. In addition, the inhibition at 5 µM in [6] is more than 50%. Moreover, the selectivity ratio in data set [8] is more than 20400. For the same compound, the inhibition entry in data set [9] is “Active”.

Take `CCCCCCCCCCOc1cc2c(=O)c(C(=O)OCC)cn(S(=O)(=O)C3CC3)c2cc1OCC`: the inhibition at 1 µM in [2] was more than 70%. Besides, in data set [6], the inhibition at 5 µM was more than 50%.

Turning to `CCCCCCCCCCOc1cc2c(=O)c(C(=O)NCCCn3ccnc3)c[nH]c2cc1OCC`, in [2], the inhibition at 1 µM is more than 70%. Besides, the inhibition at 5 µM in data set [6] is more than 50%.

`CCCCCCCCCCOc1cc2c(=O)c(C(=O)NCCOCCO)c[nH]c2cc1OCC`: the IC50 worked out at 18.5 nM in data set [1], 43900 nM in data set [3], 64.8 nM in data set [7] and 40.4 nM in [10]. Also, in data set [2], the inhibition at 1 µM was more than 70%. Besides, the “Ratio IC50” value in data set [4] is listed as 1.6; in data set [5], 0.5. Also, the inhibition at 5 µM in [6] was more than 50%. Besides, the selectivity ratio in data set [8] was 1090. The inhibition entry in data set [9] is “Active”.

On to `CCCCCCCCCCOc1cc2c(=O)c(C(=O)NCCOC)c[nH]c2cc1OCC`, for which the inhibition at 1 µM in [2] was more than 70%. The inhibition at 5 µM in [6] was more than 50%.

On to `CCCCCCCCCCOc1cc2c(=O)c(C(=O)NCCN(C)C)c[nH]c2cc1OCC`, for which the inhibition at 1 µM in data set [2] was more than 70%. The inhibition at 5 µM in data set [6] was more than 50%.

For `CCCCCCCCCCOc1cc2c(=O)c(C(=O)NCc3ccco3)c[nH]c2cc1OCC`, the inhibition at 1 µM in data set [2] is more than 70%. Also, in data set [6], the inhibition at 5 µM is more than 50%.

With `CCCCCCCCCCOc1cc2c(=O)c(C(=O)OCC)cn(S(C)(=O)=O)c2cc1OCC`, the inhibition at 1 µM in data set [2] was more than 70%. In data set [6], the inhibition at 5 µM is more than 50%.

As to `CCCCCCCCCCOc1cc2c(=O)c(C(=O)OCC)cn(C(=O)N3CCCCC3)c2cc1OCC`, the half-maximal inhibitory concentration (IC50) in data set [1] amounted to 28.2 nM; in [3], 8500 nM; in data set [7], 89.1 nM; in data set [10], 18.3 nM. The inhibition at 1 µM in data set [2] is more than 70%. Further, the “Ratio IC50” value in data set [4] was 4.9; in data set [5], 1.5. Besides, the inhibition at 5 µM in [6] was more than 50%. For the same compound, the selectivity ratio in data set [8] amounted to 465. The inhibition result in data set [9] was “Active”.

Consider `C[C@H]1[C@H](OC(=O)CCC(=O)O)O[C@@H]2O[C@@]3(C)CC[C@H]4[C@H](C)CC[C@@H]1[C@@]24OO3` [ARTESUNATE], for which the IC50 is 6.77 nM in [1], more than 100000 nM in data set [3], 8.97 nM in data set [7] and 7.88 nM in [10]. The results for the “Ratio IC50” value in data set [4] and in data set [5] were 1.4 and 0.8, respectively. In data set [8], the selectivity ratio was more than 12700.

For `CCCCCCCCCCOc1cc2c(=O)c(C(=O)NCc3ccccc3F)c[nH]c2cc1OCC`, in data set [2], the inhibition at 1 µM is more than 70%. The inhibition at 5 µM in data set [6] is more than 50%.

As for `CC[C@H]1CN2CCc3cc(OC)c(OC)cc3[C@@H]2C[C@@H]1C[C@H]1NCCc2cc(OC)c(OC)cc21` [EMETINE], in data set [3], the IC50 amounted to 50 nM.

A word on the IC50: it is the concentration that inhibits the measured activity by half. As usually defined, the inhibition is the percentage by which the read-out fell short of the control. The term solubility denotes how much of the substance goes into solution per volume. High values mean a readily soluble substance, low ones a poorly soluble substance. In general, pKa refers to the negative logarithm of the acid dissociation constant. Read a high pKa as a group that holds its proton tightly. What is called logP is a log measure of how a compound divides between an organic and an aqueous phase. A high value points to higher lipophilicity.
